Measured values published in patent publication US3954737A, “Atropisomeric ansa ring compounds” (University of Illinois Foundation, priority 1974, dated 1976).

Assays:
B. cereus = B. cereus growth inhibition; assay type: cell-based
Procedure: (§1) Assays for inhibition of other bacterial strains were carried out according to standard uniform procedures.

B. subtilis = B. subtilis bacterial inhibition, zone of inhibition (paper disc on agar); assay type: cell-based, B. subtilis UC 564; settings: 1/2 inch paper discs, 0.08 ml per disc
Procedure: The assay for B. subtilis bacterial inhibition was obtained on plates with B. subtilis UC 564 spores in agar with the following composition per liter:
After autoclaving, 10 ml. of 20 percent glucose was added. The seeding rate was approximately 10^9 spores per liter. Test solutions were applied to 1/2 inch paper discs (Schleicher & Schuell 740E) with 0.08 ml. per disc. Zones of inhibition were recorded.

Reverse Transcriptase = assay: Reverse transcriptase (RNA-directed DNA polymerase) inhibition; assay type: biochemical; set-up: concentration or dose not given beside the values
Excerpt: (§2) Tables II, III and IV below respectively set forth activities of representative atropisomeric forms of ansa ring compounds of the invention relative to the "normal" isomeric forms in the following assays: (A) reverse transcriptase (RNA-directed DNA polymerase); (B) bacterial RNA polymerase; (C) B. subtilis bacterial inhibition; (D) S. lutea bacterial inhibition; and, inhibition of numerous other bacterial strains.
The assay and work-up conditions for reverse transcriptase analysis were essentially those described by Brockman, et al., (Nature, 230, 249, (1971)), except for eliminating the phosphate from the washing solution (10 percent trichloroacetic acid).

S. pasteurianum = S. pasteurianum growth inhibition; assay type: cell-based
Procedure: as §1

S. schottmuelleri = S. schottmuelleri growth inhibition; assay type: cell-based
Procedure: as §1

P. aeruginosa = P. aeruginosa growth inhibition; assay type: cell-based
Procedure: as §1

M. avium = M. avium growth inhibition; assay type: cell-based
Procedure: as §1

K. pneumoniae = K. pneumoniae growth inhibition; assay type: cell-based
Procedure: as §1

P. oxalicum = P. oxalicum growth inhibition; assay type: cell-based
Procedure: as §1

S. lutea = S. lutea bacterial inhibition; assay type: cell-based; settings: brain heart broth, 37°, 16-18 hours
Procedure: The assay for S. lutea inhibition was as follows. Water-soluble preparations were dissolved in brain heart infusion broth (Difco) to 1 mg./ml. Water-insoluble preparations were dissolved (or suspended) in dimethylformamide to 10 mg./ml. and diluted with brain heart broth to 1 mg./ml. Two-fold serial dilutions were made with broth starting with 1 mg./ml. with final volumes of 0.1 ml. per dilution. Overnight bacterial cultures were diluted 1:20,000 with brain heart and 0.1 ml. of diluted culture was added to each dilution of antibiotic (final total volume was 0.2 ml.). This was all done in plastic microtest plates (Microtest II Tissue Culture Plate, Bioquest). The plates were incubated at 37° for 16-18 hours and zones of inhibition were recorded.

E. coli = E. coli growth inhibition; assay type: cell-based
Procedure: as §1

E.Coli RNA Polymerase = E.Coli RNA Polymerase (Escherichia coli, UniProt P0A8V2); assay: Bacterial RNA polymerase inhibition; assay type: biochemical; set-up: concentration or dose not given beside the values; settings: pH 7.9, 30°C, 15 min
Chain of E.Coli RNA Polymerase (P0A8V2 whole entry): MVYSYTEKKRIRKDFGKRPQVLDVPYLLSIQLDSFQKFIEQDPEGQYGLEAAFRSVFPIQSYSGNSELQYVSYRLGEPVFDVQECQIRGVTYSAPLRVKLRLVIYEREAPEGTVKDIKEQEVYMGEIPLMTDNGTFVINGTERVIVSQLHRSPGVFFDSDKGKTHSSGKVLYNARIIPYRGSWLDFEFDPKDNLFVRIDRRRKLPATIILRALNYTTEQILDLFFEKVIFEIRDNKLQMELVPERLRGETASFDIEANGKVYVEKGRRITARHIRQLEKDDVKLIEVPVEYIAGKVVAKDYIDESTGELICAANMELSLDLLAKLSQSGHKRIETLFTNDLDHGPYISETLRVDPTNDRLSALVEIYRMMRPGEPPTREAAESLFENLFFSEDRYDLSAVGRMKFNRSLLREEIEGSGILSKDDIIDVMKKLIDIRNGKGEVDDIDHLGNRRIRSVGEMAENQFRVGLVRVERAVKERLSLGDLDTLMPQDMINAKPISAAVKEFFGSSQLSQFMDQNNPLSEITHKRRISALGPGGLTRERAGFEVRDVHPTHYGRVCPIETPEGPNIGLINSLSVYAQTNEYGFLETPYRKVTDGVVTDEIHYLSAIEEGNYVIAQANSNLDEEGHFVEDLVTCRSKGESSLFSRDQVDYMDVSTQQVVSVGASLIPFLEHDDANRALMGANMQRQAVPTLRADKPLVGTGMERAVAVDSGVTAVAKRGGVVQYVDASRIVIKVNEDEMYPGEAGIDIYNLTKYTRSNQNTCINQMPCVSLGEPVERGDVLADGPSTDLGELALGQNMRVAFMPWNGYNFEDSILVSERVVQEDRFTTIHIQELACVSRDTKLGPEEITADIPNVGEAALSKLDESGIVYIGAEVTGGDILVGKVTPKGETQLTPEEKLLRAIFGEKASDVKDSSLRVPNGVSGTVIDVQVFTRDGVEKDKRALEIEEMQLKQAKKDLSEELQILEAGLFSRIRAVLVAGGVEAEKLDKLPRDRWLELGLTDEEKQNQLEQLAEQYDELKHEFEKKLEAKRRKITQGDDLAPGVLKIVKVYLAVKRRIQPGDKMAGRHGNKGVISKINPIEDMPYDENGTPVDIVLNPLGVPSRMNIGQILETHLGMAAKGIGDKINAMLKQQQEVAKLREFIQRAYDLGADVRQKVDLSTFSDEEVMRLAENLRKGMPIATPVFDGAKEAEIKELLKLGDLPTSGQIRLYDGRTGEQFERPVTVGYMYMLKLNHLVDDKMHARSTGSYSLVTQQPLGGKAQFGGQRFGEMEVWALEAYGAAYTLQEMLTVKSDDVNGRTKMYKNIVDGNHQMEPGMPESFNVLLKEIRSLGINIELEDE
Chain of E.Coli RNA Polymerase (P0A8T7 whole entry partner): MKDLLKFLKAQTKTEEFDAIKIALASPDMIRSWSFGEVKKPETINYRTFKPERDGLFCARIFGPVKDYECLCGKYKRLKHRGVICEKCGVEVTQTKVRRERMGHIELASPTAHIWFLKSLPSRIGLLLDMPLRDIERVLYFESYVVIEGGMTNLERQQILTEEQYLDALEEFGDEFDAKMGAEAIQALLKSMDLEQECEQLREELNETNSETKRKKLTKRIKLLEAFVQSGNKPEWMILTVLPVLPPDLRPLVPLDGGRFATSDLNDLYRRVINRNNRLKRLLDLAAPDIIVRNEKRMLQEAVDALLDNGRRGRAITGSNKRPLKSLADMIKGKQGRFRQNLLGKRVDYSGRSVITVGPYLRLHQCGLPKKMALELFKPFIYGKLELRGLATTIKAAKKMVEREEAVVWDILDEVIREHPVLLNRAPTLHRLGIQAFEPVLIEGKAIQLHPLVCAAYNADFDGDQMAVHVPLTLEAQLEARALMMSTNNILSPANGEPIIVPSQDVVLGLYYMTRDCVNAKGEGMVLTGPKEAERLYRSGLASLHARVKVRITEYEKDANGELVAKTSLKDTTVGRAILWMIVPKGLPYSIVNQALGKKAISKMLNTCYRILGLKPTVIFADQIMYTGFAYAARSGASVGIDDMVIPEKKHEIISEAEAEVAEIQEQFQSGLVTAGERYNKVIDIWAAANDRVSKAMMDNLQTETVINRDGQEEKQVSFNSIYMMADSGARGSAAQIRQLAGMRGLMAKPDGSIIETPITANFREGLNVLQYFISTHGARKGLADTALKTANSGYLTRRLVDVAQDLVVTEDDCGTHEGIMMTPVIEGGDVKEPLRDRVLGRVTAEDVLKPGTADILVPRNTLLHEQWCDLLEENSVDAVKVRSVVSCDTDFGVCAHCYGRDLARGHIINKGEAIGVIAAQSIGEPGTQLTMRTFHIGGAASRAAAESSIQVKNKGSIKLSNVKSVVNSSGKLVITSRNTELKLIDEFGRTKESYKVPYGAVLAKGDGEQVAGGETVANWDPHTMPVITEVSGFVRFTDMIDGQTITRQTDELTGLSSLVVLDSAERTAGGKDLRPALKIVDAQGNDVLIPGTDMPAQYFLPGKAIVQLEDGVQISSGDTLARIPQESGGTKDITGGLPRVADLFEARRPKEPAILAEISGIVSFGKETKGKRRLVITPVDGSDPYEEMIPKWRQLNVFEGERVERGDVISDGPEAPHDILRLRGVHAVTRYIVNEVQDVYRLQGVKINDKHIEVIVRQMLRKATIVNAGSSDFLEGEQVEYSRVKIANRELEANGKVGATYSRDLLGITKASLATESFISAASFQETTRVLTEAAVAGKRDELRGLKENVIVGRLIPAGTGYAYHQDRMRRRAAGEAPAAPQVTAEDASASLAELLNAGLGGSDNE
Chain of E.Coli RNA Polymerase (P0A7Z4 whole entry partner): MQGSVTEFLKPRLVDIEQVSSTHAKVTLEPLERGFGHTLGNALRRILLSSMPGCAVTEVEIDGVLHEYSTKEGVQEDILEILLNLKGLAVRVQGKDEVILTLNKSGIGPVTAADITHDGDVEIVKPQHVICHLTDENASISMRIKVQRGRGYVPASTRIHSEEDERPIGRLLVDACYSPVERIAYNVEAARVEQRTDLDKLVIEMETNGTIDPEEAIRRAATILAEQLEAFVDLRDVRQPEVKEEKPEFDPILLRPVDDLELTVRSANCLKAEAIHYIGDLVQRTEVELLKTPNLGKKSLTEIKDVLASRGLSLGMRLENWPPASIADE
Chain of E.Coli RNA Polymerase (P0A800 whole entry partner): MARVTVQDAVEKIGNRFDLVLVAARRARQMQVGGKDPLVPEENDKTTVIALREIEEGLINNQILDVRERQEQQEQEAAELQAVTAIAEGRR
Excerpt: as §2
The assay for bacterial RNA polymerase followed the procedure of Reusser (J. Bacteriol, 105, 580 (1971)). Assay mixtures were prepared containing in a total volume of 0.25 ml: Tris-hydrochloride buffer, pH 7.9, 5 μmoles; MgCl2, 1 μmole; mercaptoethanol, 3 μmoles; MnCl2, 0.25 μmole; quanosine triphosphate, cytidine triphosphate, uridine triphosphate, 0.1 μmole each; adenosine triphosphate 8-^14 C, 0.1 μmole containing 0.05 μCi; dAT, 0.2 units; polymerase, ~35 μg. The reaction mixtures were incubated at 30°C for 15 min.

S. aureus = S. aureus growth inhibition; assay type: cell-based
Procedure: as §1

P. vulgaris = P. vulgaris growth inhibition; assay type: cell-based
Procedure: as §1

`COC(=O)C1C(O)C(C)C(O)C(C)/C=C/C=C(\C)C(=O)Nc2c(C)c(OC(C)=O)c3c(c2O)C(=O)C(C)=C2OCOC(=C23)/C(C)=C\C(C)(O)C(O)C(C)C1O` (stereo not shown) [Atropisostreptovaricin C, atropisostreptovaricin C] was tested, and the “Zone of Inhibition” value (B. cereus) was 9 mm, the “Zone of Inhibition” value (B. subtilis) was 14 mm and the “Reverse Transcriptase % Inhibition” value (Reverse Transcriptase; Table II) was 70%. The “Zone of Inhibition” value (S. pasteurianum) was 0 mm, the “Zone of Inhibition” value (S. schottmuelleri) was 0 mm and the “Zone of Inhibition” value (P. aeruginosa) was 0 mm. For the same molecule, the “Zone of Inhibition” value (M. avium) was 20 mm, the “Zone of Inhibition” value (K. pneumoniae) was 0 mm and the “Zone of Inhibition” value (P. oxalicum) was 0 mm. For the same molecule, the “Zone of Inhibition” value (S. lutea) was 28 mm, the “Zone of Inhibition” value (E. coli) was 0 mm and the “E.Coli RNA Polymerase % Inhibition” value (E.Coli RNA Polymerase; Table III) was 50%. For the same molecule, the “Zone of Inhibition” value (S. aureus) was 20 mm and the “Zone of Inhibition” value (P. vulgaris) was 0 mm.

For `COC(=O)[C@@H]1[C@H](O)[C@H](C)[C@H](O)[C@H](C)/C=C\C=C(/C)C(=O)Nc2c(C)c(OC(C)=O)c3c(c2O)C(=O)C(C)=C2OCOC(=C23)/C(C)=C/[C@@](C)(O)[C@H](O)[C@@H](C)[C@H]1O` [Streptovaricin C, streptovaricin C, reference compound], the “Zone of Inhibition” value (B. subtilis) was 22 mm, the “Reverse Transcriptase % Inhibition” value (Reverse Transcriptase; Table II) was 31-53% and the “Zone of Inhibition” value (S. schottmuelleri) was 10 mm. For the same molecule, the “Zone of Inhibition” value (M. avium) was 15 mm, the “Zone of Inhibition” value (K. pneumoniae) was 21 mm and the “Zone of Inhibition” value (P. oxalicum) was 0 mm. For the same molecule, the “Zone of Inhibition” value (S. lutea) was 33 mm, the “Zone of Inhibition” value (E. coli) was 13 mm and the “E.Coli RNA Polymerase % Inhibition” value (E.Coli RNA Polymerase; Table III) was 78%. For the same molecule, the “Zone of Inhibition” value (S. aureus) was 26 mm and the “Zone of Inhibition” value (P. vulgaris) was 8 mm.

`CC(=O)Oc1c(C)c2c(O)c3c1C1=C(OCOC1=C(C)C3=O)C(C)=CC(C)(O)C(O)C(C)C(O)C1C(=O)OC(C(C)/C=C\C=C(C)C(=O)N2)C(C)C1O` (stereo not shown) [Streptovaricin Fc, streptovaricin Fc, reference compound] was tested, and the “Zone of Inhibition” value (B. cereus) was 0 mm, the “Zone of Inhibition” value (B. subtilis) was 0 mm and the “Reverse Transcriptase % Inhibition” value (Reverse Transcriptase; Table II) was 68%. The “Zone of Inhibition” value (S. pasteurianum) was 0 mm, the “Zone of Inhibition” value (S. schottmuelleri) was 0 mm and the “Zone of Inhibition” value (P. aeruginosa) was 0 mm. The “Zone of Inhibition” value (M. avium) was 14 mm, the “Zone of Inhibition” value (K. pneumoniae) was 0 mm and the “Zone of Inhibition” value (P. oxalicum) was 0 mm. For the same molecule, the “Zone of Inhibition” value (S. lutea) was 0 mm, the “Zone of Inhibition” value (E. coli) was 0 mm and the “E.Coli RNA Polymerase % Inhibition” value (E.Coli RNA Polymerase; Table III) was 0%. The “Zone of Inhibition” value (S. aureus) was 0 mm and the “Zone of Inhibition” value (P. vulgaris) was 0 mm.

For “atropisostreptovaricin C triacetate cyclic benzeneboronate”, the “Reverse Transcriptase % Inhibition” value (Reverse Transcriptase; Table IIA) was 77% and the “E.Coli RNA Polymerase % Inhibition” value (E.Coli RNA Polymerase; Table IIIA) was 23%.

In the case of “atropisostreptovaricin C triacetate cyclic bromobenzeneboronate [Atropisostreptovaricin C Triacetate Cyclic p-Bromobenzeneboronate]”, the “Reverse Transcriptase % Inhibition” value (Reverse Transcriptase; Table IIA) is reported as 66% and the “E.Coli RNA Polymerase % Inhibition” value (E.Coli RNA Polymerase; Table IIIA) is reported as 46%.

atropisostreptovaricin Fc was tested, and the “Zone of Inhibition” value (B. cereus) was 0 mm, the “Zone of Inhibition” value (B. subtilis) was 0 mm and the “Reverse Transcriptase % Inhibition” value (Reverse Transcriptase; Table II) was 54%. For the same molecule, the “Zone of Inhibition” value (S. pasteurianum) was 0 mm, the “Zone of Inhibition” value (S. schottmuelleri) was 0 mm and the “Zone of Inhibition” value (P. aeruginosa) was 0 mm. The “Zone of Inhibition” value (M. avium) was 0 mm, the “Zone of Inhibition” value (K. pneumoniae) was 0 mm and the “Zone of Inhibition” value (P. oxalicum) was 0 mm. The “Zone of Inhibition” value (S. lutea) was 0 mm, the “Zone of Inhibition” value (E. coli) was 0 mm and the “E.Coli RNA Polymerase % Inhibition” value (E.Coli RNA Polymerase; Table III) was 0%. For the same molecule, the “Zone of Inhibition” value (S. aureus) was 0 mm and the “Zone of Inhibition” value (P. vulgaris) was 0 mm.

For “streptovaricin C triacetate cyclic benzeneboronate [reference compound]”, the “Reverse Transcriptase % Inhibition” value (Reverse Transcriptase; Table IIA) was 44% and the “E.Coli RNA Polymerase % Inhibition” value (E.Coli RNA Polymerase; Table IIIA) was 2%.

In the case of “streptovaricin C triacetate cyclic bromobenzeneboronate [reference compound]”, the “Reverse Transcriptase % Inhibition” value (Reverse Transcriptase; Table IIA) is reported as 57% and the “E.Coli RNA Polymerase % Inhibition” value (E.Coli RNA Polymerase; Table IIIA) is reported as 20%.
